Source: patent US20240294478A1, “ANTI-CANCER COMPOUNDS AND METHODS OF USE” (YALE UNIVERSITY, priority 2021, published 2024)

Experiments:
[1] = test system: PEO4 (BRCA2+) and PEO1 (BRCA2−/−) cells; test: Short-term viability assay, PEO1/PEO4 model +/- O6BG; format: cell-based, human; conditions: PE01/4 model
Experimental: FIGS. 8A-8K. (FIG. 8A) Change in percent cells with 1 micronuclei from baseline (DMSO control) after treatment as in FIGS. 5A and 5C. […] (FIG. 8B) Short-term viability assay curves for KL-50 in PD20 cells, deficient in FANCD2 (FANCD2−/−) or complemented with FANCD2 (+FANCD2). (FIG. 8C) Short-term viability assay curves for KL-50 in PEO4 (BRCA2+) and PEO1 (BRCA2−/−) cells pre-treated with 0.01% DMSO control or 10 μM O^6BG (+O^6BG) for 1 h prior to KL-50 addition. (FIG. 8D) Short-term viability assay curves for KL-50 in DLD1 BRCA2+/− and BRCA2−/−cells pre-treated with 0.01% DMSO control or 10 μM O^6BG (+O^6BG) for 1 h prior to KL-50 addition. For FIGS. 8B-8D, points, mean; error bars, SD; n=3 technical replicates. […] The % FANCD2 ubiquitination (% FANCD2 Ub) is quantified as the background-corrected integrated band intensity of the upper band divided by the sum of the background-corrected integrated band intensities of the upper and lower bands. […]
(§1) Short-term Cell Viability Assay. […] Cells were imaged on a Cytation 3 imaging reader (BioTek) and quantified using CellProfiler software. For in vitro short-term growth delay experiments, IC50 values were determined from the nonlinear regression equation, [inhibitor] vs normalized response with variable slope.

[2] = test system: PD20 cells, deficient in FANCD2 (FANCD2−/−) or complemented with FANCD2; test: Short-term viability assay, PD20 cells; format: cell-based, human; conditions: PD20 FANCD2−/− vs +FANCD2
Experimental: (§2) FIGS. 8A-8K. (FIG. 8A) Change in percent cells with 1 micronuclei from baseline (DMSO control) after treatment as in FIGS. 5A and 5C. […] (FIG. 8B) Short-term viability assay curves for KL-50 in PD20 cells, deficient in FANCD2 (FANCD2−/−) or complemented with FANCD2 (+FANCD2). (FIG. 8C) Short-term viability assay curves for KL-50 in PEO4 (BRCA2+) and PEO1 (BRCA2−/−) cells pre-treated with 0.01% DMSO control or 10 μM O^6BG (+O^6BG) for 1 h prior to KL-50 addition. (FIG. 8D) Short-term viability assay curves for KL-50 in DLD1 BRCA2+/− and BRCA2−/−cells pre-treated with 0.01% DMSO control or 10 μM O^6BG (+O^6BG) for 1 h prior to KL-50 addition. For FIGS. 8B-8D, points, mean; error bars, SD; n=3 technical replicates. […] Change in percent cells with 1 micronuclei from baseline (DMSO control) after treatment with olaparib (10 μM) for 48 h in LN229 MGMT+/−, MMR+/−cells. […] Western blot analysis of FANCD2 ubiquitination in LN229 MGMT+/−, MMR+/−cells and PD20 FANCD2-deficient cells, complemented with empty vector (FANCD2+EV), wildtype FANCD2 (PD20+FD2) or ubiquitination-mutant FANCD2 (PD20+KR). The % FANCD2 ubiquitination (% FANCD2 Ub) is quantified as the background-corrected integrated band intensity of the upper band divided by the sum of the background-corrected integrated band intensities of the upper and lower bands. The fold change in % FANCD2 ubiquitination is presented for each cell line relative to DMSO-treated cells. Vinculin serves as loading control. For 8J-8K, points, mean; error bars, SD; n=3 technical replicates.
as §1, with “Assay. Cells were seeded in 96-well plates at 1000 or 2000 cells/well and allowed to adhere at 23° C. for 60 min and then incubated overnight at 37° C.” for “Assay.”

[3] = test system: DLD1 BRCA2+/− and BRCA2−/− cells; test: Short-term viability assay, DLD1 BRCA2 isogenic model +/- O6BG; format: cell-based, human; conditions: DLD1 isogenic model
Experimental: as §2
as §1, with “Assay. Cells were seeded in 96-well plates at 1000 or 2000 cells/well and allowed to adhere at 23° C. for 60 min and then incubated overnight at 37° C.” for “Assay.”

[4] = test system: linearized pUC19 plasmid DNA; test: Melting temperature assay; format: biochemical; conditions: 100 or 500 μM for 3 h
Experimental: Columns, mean; error bars, SD; n=2 independent analyses. For (A) and (C), points, mean; error bars, SD; n=3 technical replicates.
Melting Temperature Assay. Linearized pUC19 DNA (750 ng), prepared as described above, was incubated with the indicated concentration of either MMS or KL-50 adjusted in a final volume of 18 μL in 100 mM Tris buffer (pH 7.4) for 3 h. Drug stock concentrations were made in DMSO such that each reaction contained a fixed 5% DMSO concentration. Afterwards, 1 μL each of 20×SYBR Green dye (Invitrogen) and 20×ROX reference dye (Invitrogen) was added and melting temperature analysis was run on a StepOnePlus RT PCR System (Applied Biosciences) to generate melting temperature curves.

Structure (SMILES) | therapeutic index (TI) [1] [fold] | sensitivity of FANCD2-deficient cells [2] | therapeutic index (TI), ratio of IC50 values in MGMT+/BRCA2+ cells compared to MGMT−/BRCA2− cells [3] [fold] | change in DNA melting temperature [4]
N.N.[Cl][Pt][Cl] [cisplatin, reference compound] | 13 | hypersensitivity to crosslinking agents in FANCD2−/−cells | 42 | –
COS(C)(=O)=O [MMS, Methylmethane sulfonate, reference compound] | – | – | – | comparable changes in measured DNA melting temperature
